Laboratory results taken from patent US20130217092A1, “Enhancing Reactivation of Thermostable Reversibly Inactivated Enzymes” (Qiagen GmbH, priority 2006, published 2013).

Tests used:
Type in all cases: biochemical
[1] = target: T1, HotStarTaq DNA Polymerase (Thermus aquaticus, UniProt P19821); experiment: Fast PCR with ammonium chloride, agarose gel, Example 4; settings: 10, 20 and 30 mM ammonium chloride vs 0 mM; PCR assays A, B, C; FIG. 3
T1 construct: purchased QIAGEN
Protocol: Each PCR reaction contained 1.5 units HotStarTaq DNA Polymerase, 10 ng template human or mouse genomic DNA, 200 μM of each dNTP, 0.5 μM of each primer for each different PCR assay (Assay A, primer A1: 5′-GCTTGAGCAACCTGGCTAAGATAGAGG-3′ (SEQ ID NO:7), primer A2: 5′-GAGTTAGCAGGAGGCTGGATGCAGATG-3′ (SEQ ID NO:8); Assay B, primer B1: 5′-CCACAATGGACATCACACAAGTGAG-3′ (SEQ ID NO:9), primer B2: 5′-GATCTTTCTGCCCAGATACCATTCG-3′ (SEQ ID NO:10); Assay C, primer C1: 5′-CCTTGCCTTAGATGTGTCGGCA-3′ (SEQ ID NO:11), primer C2: 5′-CCCAAACCCAACCCATACACAC-3′ (SEQ ID NO:12)) and PCR grade water. PCR reactions were started with an initial enzyme activation step at 95° C. for 5 minutes followed by 35 cycles: 96° C. for 5 seconds, 60° C. for 5 seconds and 68° C. for 30 seconds/kb PCR product size. PCR products were analysed on a 1% TAE agarose gel. M: DNA size ladder (FIG. 3).

[2] = target: chemically modified enzyme (Thermus aquaticus, UniProt P19821); experiment: Additionally tested compounds, enhancement of enzyme activity of a chemically modified enzyme; settings: conditions not stated
Sequence of chemically modified enzyme (P19821 whole entry): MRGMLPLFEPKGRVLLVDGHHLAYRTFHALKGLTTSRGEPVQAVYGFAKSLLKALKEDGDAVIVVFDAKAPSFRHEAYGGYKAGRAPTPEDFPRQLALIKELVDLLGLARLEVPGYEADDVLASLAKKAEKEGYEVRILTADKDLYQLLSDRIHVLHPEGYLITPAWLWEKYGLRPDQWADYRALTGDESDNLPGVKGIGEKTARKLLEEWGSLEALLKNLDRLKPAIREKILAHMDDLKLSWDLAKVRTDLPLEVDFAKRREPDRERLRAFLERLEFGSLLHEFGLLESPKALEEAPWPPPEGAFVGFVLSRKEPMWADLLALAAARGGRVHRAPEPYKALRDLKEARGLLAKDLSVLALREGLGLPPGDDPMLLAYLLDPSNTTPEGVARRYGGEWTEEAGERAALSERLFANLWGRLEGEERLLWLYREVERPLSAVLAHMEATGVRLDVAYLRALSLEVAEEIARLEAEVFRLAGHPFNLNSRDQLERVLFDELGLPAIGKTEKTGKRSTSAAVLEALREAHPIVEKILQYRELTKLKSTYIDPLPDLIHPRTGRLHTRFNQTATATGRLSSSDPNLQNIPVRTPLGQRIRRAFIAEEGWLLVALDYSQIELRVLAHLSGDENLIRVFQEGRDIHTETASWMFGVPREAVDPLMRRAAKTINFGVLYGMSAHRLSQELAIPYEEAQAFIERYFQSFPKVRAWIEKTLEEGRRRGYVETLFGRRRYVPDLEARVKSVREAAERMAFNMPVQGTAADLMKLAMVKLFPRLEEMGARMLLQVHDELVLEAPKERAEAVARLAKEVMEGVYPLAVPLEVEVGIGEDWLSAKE

[3] = target: T2, unmodified Taq DNA Polymerase (QIAGEN) (Thermus aquaticus, UniProt P19821); experiment: SYBR Green I real-time PCR, Example 1 (control enzyme)
T2 construct: purchased QIAGEN
T2 sequence (P19821 whole entry): as above
Text: (§1) In real-time PCR, the enzymatic reaction is continuously monitored by measuring fluorescence signals throughout the reaction. Double-stranded DNA molecules are generated during the PCR reaction. These PCR products are detected by using SYBR Green I fluorescent dye that binds selectively to dsDNA only. Thus, an increase of fluorescence indicates an increase in PCR product amount and thus activity of the DNA polymerase contained in the reaction. […] Thus, the CT value is a measurement for the enzyme activity contained in the reaction: Low CT values indicate high enzyme activity and high CT values represent lower enzyme activity residing in the reaction.
A SYBR Green I based PCR reaction was conducted in the presence of unmodified Taq DNA Polymerase (QIAGEN) serving as a control reaction, using HotStarTaq DNA polymerase (QIAGEN) or AmpliTaq Gold (Applied Biosystems). Each reaction contained 0.625 units of the respective DNA polymerase, 1× PCR reaction buffer of the respective DNA polymerase, 200 μM of each dNTP, 0.5 μM primer A: 5′-[…]-3′ (SEQ ID NO:1), 0.5 μM primer B: 5′-[…]-3′ (SEQ ID NO:2), PCR grade water and in case of testing nitrogen-containing compounds as example 100 mM Triazole, final concentration. […] Average CT values were determined from triplicate reactions comparing reactions without the addition of Triazole and with 100 mM Triazole.

[4] = target: T3, AmpliTaq Gold (Applied Biosystems) (Thermus aquaticus, UniProt P19821); experiment: SYBR Green I real-time PCR, Example 1, reactivation of chemically modified enzyme
T3 construct: purchased Applied Biosystems
T3 sequence (P19821 whole entry): as above
Text: (§2) As model system to exemplify the invention, hot start PCR was chosen with two commercially available enzymes. […] AmpliTaq Gold (Applied Biosystems) is chemically inactivated using dicarboxylic acid anhydride whereas HotStarTaq (QIAGEN) is chemically inactivated using formaldehyde.
as §1
(§3) A SYBR Green I based PCR reaction was conducted in the presence of unmodified Taq DNA Polymerase (QIAGEN) serving as a control reaction, using HotStarTaq DNA polymerase (QIAGEN) or AmpliTaq Gold (Applied Biosystems). Each reaction contained 0.625 units of the respective DNA polymerase, 1× PCR reaction buffer of the respective DNA polymerase, 200 μM of each dNTP, 0.5 μM primer A: 5′-[…]-3′ (SEQ ID NO:1), 0.5 μM primer B: 5′-[…]-3′ (SEQ ID NO:2), PCR grade water and in case of testing nitrogen-containing compounds as example 100 mM Triazole, final concentration. Each reaction contained 10 ng human genomic DNA as amplification substrate. PCR reactions were started with an initial enzyme activation step at 95° C. for 5 minutes followed by 50 cycles: 94° C. for 15 seconds and 60° C. for 60 seconds. Average CT values were determined from triplicate reactions comparing reactions without the addition of Triazole and with 100 mM Triazole.

[5] = target: T4, HotStarTaq DNA polymerase (QIAGEN) (Thermus aquaticus, UniProt P19821); experiment: as above
T4 construct: purchased QIAGEN
T4 sequence (P19821 whole entry): as above
Text: as §2, §1, §3

[6] = target: T1, HotStarTaq DNA Polymerase; experiment: Fast PCR with shortened cycling times, agarose gel, Example 2; settings: 100, 200, 300, 400 and 500 mM Triazole vs absence of Triazole; FIG. 1
Protocol: Each PCR reaction contained 1.5 units HotStarTaq DNA Polymerase, 10 ng template human genomic DNA, 200 μM of each dNTP, 0.5 μM primer A: 5′-CACACAGCGATGGCAGCTATGC-3′ (SEQ ID NO:3), 0.5 […] primer B: 5′-CCC AGT GAT GGG CCA GCT C-3′ (SEQ ID NO:4), PCR grade water and in case of testing nitrogen-containing compounds as example 100 mM, 200 mM, 300 mM, 400 mM and 500 mM Triazole, final concentration. PCR reactions were started with an initial enzyme activation step at 95° C. for 5 minutes followed by 35 cycles: 96° C. for 5 seconds, 60° C. for 5 seconds and 68° C. for 30 seconds. PCR products were analysed on a 1% TAE agarose gel (FIG. 1).

[7] = target: T1, HotStarTaq DNA Polymerase; experiment: Fast PCR with 20 mM ammonium chloride and Triazole, agarose gel, Example 5
Protocol: System C shown in Example 4 was chosen as model system. Each PCR reaction contained 1.5 units HotStarTaq DNA Polymerase, 10 ng template human genomic DNA, 200 μM of each dNTP, 0.5 μM of each primer A: 5′-CCTTGCCTTAGATGTGTCGGCA-3′ (SEQ ID NO:11), primer B: 5′-CCCAAACCCAACCCATACACAC -3′ (SEQ ID NO:12), and PCR grade water. PCR reactions were started with an initial enzyme activation step at 95° C. for 5 minutes followed by 35 cycles: 96° C. for 5 seconds, 60° C. for 5 seconds and 68° C. for 45 seconds. PCR products from duplicate reactions were analysed on a 1% TAE agarose gel. M: DNA size ladder.

T1 sequence (P19821 whole entry): as the sequence (P19821 whole entry) above

Cl.N [ammonium chloride]
overall enzyme activity of the chemically inactivated enzyme [1]: increase of overall enzyme activity

N.N.O=C(O)O [ammonium carbonate]
improvement of enzyme activity [2]: no improvement

N.N.O=S(=O)(O)O [ammonium sulfate]
improvement of enzyme activity [2]: no improvement

N.O=C(O)c1ccccc1 [ammonium benzoate]
improvement of enzyme activity [2]: no improvement

N.N.O=P(O)(O)O [di-ammonium hydrogen phosphate]
improvement of enzyme activity [2]: no improvement

Triazole
effect on the enzyme activity ([3]; 100 mM Triazole, unmodified Taq DNA polymerase): no effect | Average CT value with 100 mM Triazole ([3]; Taq (unmodified), activation 95° C. for 5 minutes, triplicate reactions, low CT = high enzyme activity): 21.3 | effect on the enzyme activity ([4]; 100 mM Triazole): clearly higher enzyme activity | Average CT value with 100 mM Triazole ([4]; activation 95° C. for 5 minutes, triplicate reactions, low CT = high enzyme activity): 25.6 | effect on the enzyme activity ([5]; 100 mM Triazole, HotStarTaq DNA Polymerase): clearly higher enzyme activity | Average CT value with 100 mM Triazole ([5]; HotStarTaq, activation 95° C. for 5 minutes, triplicate reactions, low CT = high enzyme activity): 35.9 | enzyme activity / generation of the desired PCR product under fast cycling [6]: significantly improves enzyme activity | enzyme activity of the chemically modified enzyme ([7]; 500 mM Triazole in the presence of 20 mM ammonium chloride): still higher than in the reaction without Triazole | enzyme activity of the chemically modified enzyme ([7]; Triazole 100-500 mM in the presence of 20 mM ammonium chloride vs no Triazole, FIG. 4): clear benefit for the enzyme activity

ammonium citrate
improvement of enzyme activity [2]: no improvement
